Laboratory results: patent publication US20250170151A1 (REMEDY PHARMACEUTICALS, INC., priority 2022, published 2025)
Converted amounts (≈) assume the structure as drawn. Where two headings read alike, the source gives them in different places.

Legend:
[1] = cited from earlier work
[2] = aqueous buffer, cited from earlier work
[3] = Glyburide solubility in intravenous dosing solutions; format: physicochemical
[4] = Mock IV infusion: sorption of glyburide to administration sets; format: physicochemical; settings: for initial drop in the glyburide concentration: PVC administration sets
From the text: Thus, there was significant unpredictability in how much of the drug product would be administered to a given patient at any given time depending on various factors. […] At lower NaOH:GLY ratios, a longer period of time is required for the drug concentration to recover.

[5] = Studies with phosphate and glycine buffering agents (Example 3); format: physicochemical; settings: buffering agents phosphate (pKa 7.21) and glycine (pKa 9.8)
From the text: For example, and without limiting the foregoing disclosure, the buffering agent may be Tris, lysine, arginine, an ethylenediamine, an imidazole, a 4-(2-Hydroxyethyl)morpholine, a triethanolamine, a glucamine, a deanol (dimethylaminoethanol), phosphate, phosphate buffered saline (PBS), or a combination thereof.

[6] = Drug reconstitution and dilution experiments (Example 2); settings: vial reconstitution pH above 10.2; 6 mg vial, 20 ml WFI, 500 ml saline bag
Procedure: A maximum final dosing pH of 9.2 (after infusion, there is a slight drop in pH to ˜9, which is the maximum pH of a solution that can be safely infused to a patient) was used as an upper limit constraint on the reconstitution solution and dilution solution pHs. Drug reconstitution and dilution experiments were carried out.

[7] = Stability of glyburide after reconstitution with Tris buffer, HPLC (Example 6); format: physicochemical; settings: for Glyburide content (mg/mL) at T0 h / Glyburide content (mg/mL) at T2 h / Glyburide content (mg/mL) at T24 h: +50% excess NaOH, 0.22 um filtered, HPLC; for Recon vial pH: lyophilized formulation +50% excess NaOH
Procedure: The contents of the vial were dissolved by gentle shaking and pH after reconstitution was measured. About 1 mL of sample was withdrawn at 0, 1, 2 and 24 hours post reconstitution and filtered through 0.22 um membrane filters and analyzed by HPLC.

physchem = assay: physchem
Procedure: An additional critical requirement was that, after reconstitution, the reconstituted formulation must remain sufficiently stable and soluble.
The vial pH after reconstitution (20 ml) can be used to ensure that the appropriate compounding pH was achieved during manufacture. The target reconstitution pH is 9.8 with a range of 9.2-10.2. In some aspects, the concentration after reconstitution is 0.3 mg/ml (6 mg/20 ml).

[8] = recon diluent 10 mM tris pH 7.99
[9] = recon diluent 10 mM tris pH 8.25

## COc1ccc(Cl)cc1C(=O)NCCc1ccc(S(=O)(=O)NC(=O)NC2CCCCC2)cc1 [glyburide, 5-chloro-N-(4-[N-(cyclohexylcarbamoyl)sulfamoyl]phenethyl)-2-methoxybenzamide]
[1]; all measured pH values from pH 4 to pH 9, Britton-Robinson buffer
  Solubility: below 1 mg/mL
[1]; pH 4, 27° C., Britton-Robinson buffer
  Solubility: 4 µg/mL (≈ 8.1 µM)
[1]; pH 6, 27° C., Britton-Robinson buffer
  Solubility: 5 µg/mL (≈ 10.1 µM)
[1]; pH 7, 27° C., Britton-Robinson buffer
  Solubility: 11 µg/mL (≈ 22.3 µM)
[1]; pH 8, 27° C., Britton-Robinson buffer
  Solubility: 80 µg/mL (≈ 162 µM)
[1]; pH 9, 27° C., Britton-Robinson buffer
  Solubility: 600 µg/mL (≈ 1210 µM)
[2]; pH 2, 37° C.
  Solubility: 0.07 µg/mL (≈ 0.142 µM)
[2]; pH 3, 37° C.
  Solubility: 0.06 µg/mL (≈ 0.121 µM)
[2]; pH 5, 37° C.
  Solubility: 0.1 µg/mL (≈ 0.202 µM)
[2]; pH 6, 37° C.
  Solubility: 0.62 µg/mL (≈ 1.26 µM)
[2]; pH 7, 37° C.
  Solubility: 5.62 µg/mL (≈ 11.4 µM)
[2]; pH 8, 37° C.
  Solubility: 51.2 µg/mL (≈ 104 µM)
[2]; pH 9, 37° C.
  Solubility: 98.6 µg/mL (≈ 200 µM)
[2]; pH 11.8, 37° C.
  Solubility: 531.6 µg/mL (≈ 1080 µM)
[3]; formulations of the present disclosure
  Solubility: > 15 µg/mL
[3]; prior art intravenous glyburide dosing solutions
  Solubility: < 5.7 µg/mL
[4]; drug product with NaOH:GLY molar ratio of 13.8 reconstituted into saline with a pH of 7
  pH in the final dosing solution: 9.9
[4]; formulation of the present disclosure with the specific buffering agents
  drug sorption to administration components made of PVC or PUR: eliminated
[4]; formulations of the present disclosure, diluted (final dosing) pH less than 7.8, PVC administration sets (FIG. 3)
  dip in glyburide concentration: at least 10%
[4]; prior art formulation, NaOH:GLY ratio 3:1, 1 L saline bag
  initial drop in the glyburide concentration: about 40%
[4]; prior art formulations with varying NaOH:GLY molar ratios, 1 L saline bag
  initial drop in the glyburide concentration: at least 10%
[4]; prior art glyburide formulations with sufficiently high base to glyburide ratios
  pH of reconstituted formulation: ~10
[4]; prior art glyburide formulations, various administration materials
  sorption in mock infusion test (FIG. 1): significant sorption immediately at the start of infusion
[4]; prior art intravenous glyburide formulations, all filter components (data not shown)
  binding to filter components: readily and extensively binds to all filter components
[5]
  prevention of sorption to medical materials by buffering agent: did not prevent sorption to medical materials
  stabilization of glyburide by buffering agent: did not effectively stabilize glyburide
[6]
  final IV bag pH: greater than 9.2
[7]; [8]
  Glyburide content (mg/mL) at T0 h: 0.29 mg/mL
  Glyburide content (mg/mL) at T2 h: 0.29 mg/mL
  Glyburide content (mg/mL) at T24 h: 0.29 mg/mL
[7]; [9]
  Glyburide content (mg/mL) at T0 h: 0.29 mg/mL
  Glyburide content (mg/mL) at T2 h: 0.29 mg/mL
  Glyburide content (mg/mL) at T24 h: 0.29 mg/mL
[7]; recon diluent 20 mL 10 mM tris pH 7.99
  Recon vial pH: 8.65
[7]; recon diluent 20 mL 10 mM tris pH 8.25
  Recon vial pH: 8.78
[7]; recon pH of 8.65 and 8.78, through 24 hours
  precipitation of glyburide after reconstitution: No precipitation
physchem; pH 9.25, aqueous buffer
  Solubility: 480 µg/mL (≈ 972 µM)
physchem; pH 9.37, aqueous buffer
  Solubility: 720 µg/mL (≈ 1460 µM)
